# Assay results taken from patent US11254671B2, “Chemical compounds” (GLAXOSMITHKLINE INTELLECTUAL PROPERTY DEVELOPMENT LIMITED, priority 2017, dated 2022).
# “And” between values parts separate entries of the source, which are not always exact repeats. Identical values can stand only once.
# Molecular target: T1, mTOR (Homo sapiens, UniProt P42345)
# T1 construct: capturing of endogenously expressed target proteins from cell extracts by a bead-immobilized capturing ligand; endogenous in cells; host or cells: HuT-78 cells (ECACC 88041901), cell lysate
# Test: mTOR kinobeads assay (competition-binding assay)
# Conditions: HuT-78 cell extract, endogenously expressed mTOR, bead-immobilized capturing ligand; mean of multiple experiments; read-out: mean pIC50, affinity for mTOR (converted)
# Outline: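 Competition binding of endogenous mTOR from HuT-78 cell lysate (250 μg, 5 mg/ml) to immobilized Compound A/C beads, 2 h at 4 °C, pH 7.5, 2% DMSO, 11-point series. Bead-bound mTOR eluted, dot-blotted, detected by anti-mTOR infrared immunofluorescence; normalized to DMSO and 100 μM Compound B controls, 4-parameter fit to pIC50.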
row,IC50,SMILES
1,2.51 to 316 nM,"CC[C@H]1COCCN1c1cc(C2(S(=O)(=O)C3CC3)CC2)cc(-c2ccc3[nH]c(CNC)cc3n2)n1 [Example 11, (S)-1-(5-(4-(1-(cyclopropylsulfonyl)cyclopropyl)-6-(3-ethylmorpholino)pyridin-2-yl)-1H-pyrrolo[3,2-b]pyridin-2-yl)-N-methylmethanamine]"
2,2.51 to 31.6 nM and 2.51 to 316 nM,"CNCc1cc2nc(-c3cc(C(C)(C)S(C)(=O)=O)cc(N4CCOC[C@@H]4C)n3)ccc2[nH]1 [Example 2, (S)—N-methyl-1-(5-(6-(3-methylmorpholino)-4-(2-(methylsulfonyl)propan-2-yl)pyridin-2-yl)-1H-pyrrolo[3,2-b]pyridin-2-yl)methanamine]"
3,2.51 to 31.6 nM and 2.51 to 316 nM,"CNCc1cc2nc(-c3cc(C(C)(C)S(C)(=O)=O)cc(N4CC5CCC(C4)O5)n3)ccc2[nH]1 [Example 4, 1-(5-(6-(8-oxa-3-azabicyclo[3.2.1]octan-3-yl)-4-(2-(methylsulfonyl)propan-2-yl)pyridin-2-yl)-1H-pyrrolo[3,2-b]pyridin-2-yl)-N-methylmethanamine]"
